Data as given in patent US20230364079A1, “COMPOUND AS BRAIN-PERMEABLE BTK OR HER2 INHIBITOR, PREPARATION METHOD THEREFOR, AND USE THEREOF” (CHENGDU HYPERWAY PHARMACEUTICALS CO., LTD., priority 2020, published 2023).

Assays:
BT474 cell proliferation = assay: In vitro cell proliferation inhibitory activity test (CTG), BT474; assay type: cell-based
Description: (§1) Test Example 4: In Vitro Cell Proliferation Inhibitory Activity Test
(§2) Cells were cultured in 1640 medium, added with 10% inactivated FBS and 1% double antibiotics, and cultured at 37° C. and 5% CO2.
(§3) (1) Cells were routinely cultured until the cell density was 80%-90%, and the cells were harvested when their number reached the requirement.
(§4) (2) Cells were resuspended with corresponding culture medium, counted, and prepared into cell suspension at appropriate density.
(§5) (3) The cell suspension was added to a 96-well plate, 100 µL per well.
(§6) (4) Cells were cultured overnight in a 37° C., 5% CO2 incubator.
(§7) (1) The compounds to be tested were diluted with DMSO to make a stock solution with a final concentration of 20 mM for later use.
(§8) (2) The stock solution was diluted 10 times from 20 mM to 2 mM with DMSO, and then diluted 3 times from 2 mM to 9 concentrations.
(§9) (3) The blank control wells were cells plus 0.5% DMSO, as high-reading control wells.
(§10) (4) Wells with no cells and only medium were used as low-reading control wells.
(§11) 4: Cell Treatment With Compound
(1) 24 h after the cells were plated, the compounds acted alone, and 99 µL of growth medium was added to each well, followed by 1 µL of the compound prepared in step 3. […]
(§12) (3) The chemiluminescent signal value was read with the Envision instrument.
IC50 was calculated by using GraphPad Prism 8 software. […]

TMD8 cell proliferation = assay: In vitro cell proliferation inhibitory activity test (CTG), TMD8; assay type: cell-based, human; settings: TMD8 cells, 72 h
Description: as §1, §2, §3, §4, §5, §6, §7, §8, §9, §10, §11
(1) 24 h after the cells were plated, the compounds acted alone, and 99 µL of growth medium was added to each well, followed by 1 µL of the compound prepared in step 3. The plate was shaken gently to mix uniformly, and then placed in a 37° C., 5% CO2 incubator.
(2) The cell plate was placed in an incubator for 72 h.
5: Detection by CTG Method
(1) The cell plate to be tested was placed at room temperature for 30 min, and 100 µL of medium was discarded from each well.
(2) 100 µL of CTG reagent (CelltiterGlo kit) was added to each well, placed on a fast shaker for 2 min, and stood at room temperature in the dark for 30 min.
as §12
IC50 was calculated by using GraphPad Prism 8 software. The IC50 (half inhibitory concentration) of the compound was derived using the following nonlinear fitting formula, and the results are shown in the following table: […]

BTK wild-type kinase = BTK wild-type kinase (Homo sapiens (Human), UniProt Q06187); assay: BTK kinase activity inhibition test in vitro (Caliper EZ Reader); assay type: biochemical
Procedure, shortened: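 Compound (10 mM DMSO stock) preincubated with kinase 10 min at room temperature, then ATP plus kinase substrate 2 added, 10 min reaction at room temperature before stop. Substrate conversion read by Caliper mobility shift; inhibition normalised to no-enzyme and no-compound controls, IC50 by variable-slope log(inhibitor) fit.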

BTK wild-type kinase, sequence (Q06187 whole entry): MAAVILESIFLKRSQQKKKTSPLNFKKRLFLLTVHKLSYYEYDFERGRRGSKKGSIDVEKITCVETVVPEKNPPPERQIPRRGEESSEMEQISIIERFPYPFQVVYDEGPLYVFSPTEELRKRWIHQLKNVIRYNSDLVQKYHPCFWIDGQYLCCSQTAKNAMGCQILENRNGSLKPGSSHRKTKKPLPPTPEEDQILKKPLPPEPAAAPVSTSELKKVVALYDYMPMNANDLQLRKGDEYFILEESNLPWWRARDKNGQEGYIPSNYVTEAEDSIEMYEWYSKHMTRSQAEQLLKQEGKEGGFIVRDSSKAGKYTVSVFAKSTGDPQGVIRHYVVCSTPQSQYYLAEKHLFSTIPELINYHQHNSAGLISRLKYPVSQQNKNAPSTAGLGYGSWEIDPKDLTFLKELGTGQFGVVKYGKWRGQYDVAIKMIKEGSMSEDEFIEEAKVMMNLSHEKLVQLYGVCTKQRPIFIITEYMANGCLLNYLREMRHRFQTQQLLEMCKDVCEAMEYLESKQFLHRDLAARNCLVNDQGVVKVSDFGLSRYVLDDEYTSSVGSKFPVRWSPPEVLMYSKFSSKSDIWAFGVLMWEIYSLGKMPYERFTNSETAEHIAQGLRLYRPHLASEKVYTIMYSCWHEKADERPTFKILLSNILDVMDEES

IC50 (BT474 cell proliferation): 2180 nM
IC50 (BTK wild-type kinase): 20 to 100 nM
SMILES: Nc1nccn2c(C3CCC(CO)OC3)nc(-c3ccc(C(F)(F)c4ccccc4)cc3)c12 (single isomer, unassigned) [Compound 111-P2]
IC50 (TMD8 cell proliferation): 275 nM
